Laboratory results published in BindingDB's records for doi:10.1021/np970376z (Aoyama Gakuin University, 1998).

What follows are compounds tested against Prothrombin (Homo sapiens, UniProt P00734) (assay: Inhibition of thrombin).
With `C/C(=C\Cc1cc(O)ccc1O)CCC[C@@H](C)[C@@H](C[C@@H]1CCC[C@H]2C(C)(C)CCC[C@@]12C)OS(=O)(=O)O` the IC50 was greater than 136 µM.
`CC1(C)CCC[C@H]2[C@H]1CC[C@@]1(C)[C@@H]2CC/C(=C\OS(=O)(=O)O)[C@@H]1CCc1ccoc1` [listing 1 of 2 here] gave an IC50 of 47.7 µM.
Work on `CC1(C)CCC[C@H]2[C@H]1CC[C@@]1(C)[C@@H]2CC/C(=C\OS(=O)(=O)O)[C@@H]1CCc1ccoc1` [listing 2 of 2 here] yielded an IC50 of 42.7 µM.
